IC50 data for 23 compounds are collected here from patent publication US20250388602A1 (Genase Therapeutics B.V., priority 2022, published 2025).

The subject of test [1] is MOLM-13 cells. Briefly: MOLM-13 cell viability (Assay B), Cell Titer-Glo. The format is cell-based. The conditions noted are these: Homo sapiens, read-out: IC50 MOLM13 inhibition activity. Here is the method:
MOLM-13 cells (an acute myeloid leukemia cell line) were plated in RPMI supplied with 10% FBS and 1% Pen/Strep in 384-well plates at 1,000 cells per well on day 0. On day 1, treatment of the cells with compound (concentration range 10E-5 and 6E-12 M) was initiated in the presence or absence of 100 μM uridine. After 72 hours incubation of the cells with or without test compound, the number of viable cells per well was assessed by Cell Titer-Glo Luminescent Cell Viability Assay (Promega, Madison, WI, USA). […] Each condition was tested in duplicate and the potency of test compounds was determined from two independent experiments.

The target in test [2] is recombinant human DHODH (Homo sapiens (Human), UniProt Q02127). Briefly: DHODH enzyme assay (Assay A), DCIP absorbance. The format is biochemical. Here is the method: Inhibition of human dihydroorotate dehydrogenase (DHODH) by example compounds as described herein was determined using one of two assays as described below.
Chain of recombinant human DHODH (Q02127 whole entry): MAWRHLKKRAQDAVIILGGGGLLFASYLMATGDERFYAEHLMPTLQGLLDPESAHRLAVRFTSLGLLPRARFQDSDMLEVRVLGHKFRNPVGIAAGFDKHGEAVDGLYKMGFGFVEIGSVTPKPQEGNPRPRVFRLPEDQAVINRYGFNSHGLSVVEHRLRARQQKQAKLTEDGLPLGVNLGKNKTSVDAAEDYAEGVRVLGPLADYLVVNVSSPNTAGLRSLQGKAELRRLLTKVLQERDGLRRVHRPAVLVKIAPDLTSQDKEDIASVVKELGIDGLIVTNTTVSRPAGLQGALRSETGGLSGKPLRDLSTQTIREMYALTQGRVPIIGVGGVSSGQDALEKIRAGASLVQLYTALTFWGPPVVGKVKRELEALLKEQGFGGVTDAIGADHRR
DHODH enzyme assays were performed with 6 nM recombinant human DHODH (purified essentially as described by Walse et al., Biochemistry, 47, 8929-8936 (2008)). The reaction mixture consisted of 1 mM DL-dihydroorotic acid (#D7003, Sigma-Aldrich), 100 μM 3,4-dimethoxy-5-methyl-p-benzoquinone (#D9150, Sigma-Aldrich), and 100 μM 2,6-dichlorophenolindophenol sodium salt (DCIP) (#D1878, Sigma-Aldrich) in enzyme buffer (50 mM Tris-HCl pH 8.0, 0.1% Triton X-100, 150 mM KCl). A stock solution of 20 mM DCIP was prepared in enzyme buffer and filtered through Whatman paper just before use. Reactions were performed in a total volume of 100 μL, consisting of 1 μL of compound, 49 μL of enzyme and 50 μL of reaction mixture. Loss in absorbance by chromogen DCIP was measured at 595 nm following a 70 minute incubation at 32° C.

The mark [3] stands for this setting: MOLM-13, 72 hours, bins ≥10 nM-<100 nM and <10 nM.
[4] abbreviates: bins ≥10 nM-<100 nM and <10 nM, read-out: IC50 DHODH inhibition activity.

Like-named read-outs stand apart in the source and are kept apart here. A value given as a limit tells only on which side of the number the result lay.

With `Cc1cccc(-n2ncc3c2COC[C@H]3NC(=O)c2n[nH]c3c2CCCC3)c1Cl` [Ex-17, (S)—N-(1-(2-chloro-3-methylphenyl)-1,4,5,7-tetrahydropyrano[3,4-c]pyrazol-4-yl)-4,5,6,7-tetrahydro-1H-indazole-3-carboxamide], the IC50 in test [1] (setting [3]) and in test [2] (setting [4]) was 10 to 100 nM each time.

For `Cc1cccc(-n2ncc3c2COC[C@H]3NC(=O)c2noc3c2CCCC3)c1Cl` [Ex-18, (S)—N-(1-(2-chloro-3-methylphenyl)-1,4,5,7-tetrahydropyrano[3,4-c]pyrazol-4-yl)-4,5,6,7-tetrahydrobenzo[d]isoxazole-3-carboxamide], the IC50 in test [1] (setting [3]) and in test [2] (setting [4]) was < 10 nM throughout.

Take `CCc1c(C(=O)N[C@@H]2COCc3c2cnn3-c2cccc(C)c2Cl)n[nH]c1C` [Ex-19, (S)—N-(1-(2-chloro-3-methylphenyl)-1,4,5,7-tetrahydropyrano[3,4-c]pyrazol-4-yl)-4-ethyl-5-methyl-1H-pyrazole-3-carboxamide]: the IC50 in test [1] (setting [3]) and in test [2] (setting [4]) was 10 to 100 nM throughout.

Turning to `COc1cccc(-n2ncc3c2COC[C@H]3NC(=O)c2ncn3c2CCCC3)c1Cl` [Ex-21, (S)—N-(1-(2-chloro-3-methoxyphenyl)-1,4,5,7-tetrahydropyrano[3,4-c]pyrazol-4-yl)-5,6,7,8-tetrahydroimidazo[1,5-a]pyridine-1-carboxamide], the IC50 in test [1] (MOLM-13, 72 h) is < 10 nM; in test [2] (setting [4]), < 10 nM.

Take `CCc1c(C(=O)N[C@@H]2COCc3c2cnn3-c2cccc(OC)c2Cl)ncn1C` [Ex-22, (S)—N-(1-(2-chloro-3-methoxyphenyl)-1,4,5,7-tetrahydropyrano[3,4-c]pyrazol-4-yl)-5-ethyl-1-methyl-1H-imidazole-4-carboxamide]: the IC50 in test [1] (setting [3]) and in test [2] (setting [4]) was < 10 nM throughout.

On to `COc1cccc(-n2ncc3c2COC[C@H]3NC(=O)c2n[nH]c3c2CCCC3)c1Cl` [Ex-24, (S)—N-(1-(2-chloro-3-methoxyphenyl)-1,4,5,7-tetrahydropyrano[3,4-c]pyrazol-4-yl)-4,5,6,7-tetrahydro-1H-indazole-3-carboxamide], for which the IC50 was < 10 nM in test [1] (setting [3]) and 10 to 100 nM in test [2] (setting [4]).

Regarding `COc1cccc(-n2ncc3c2COC[C@H]3NC(=O)c2noc3c2CCCC3)c1Cl` [Ex-25, (S)—N-(1-(2-chloro-3-methoxyphenyl)-1,4,5,7-tetrahydropyrano[3,4-c]pyrazol-4-yl)-4,5,6,7-tetrahydrobenzo[d]isoxazole-3-carboxamide], the IC50 was < 10 nM in test [1] (setting [3]) and 10 to 100 nM in test [2] (setting [4]).

With `CCc1c(C(=O)N[C@@H]2COCc3c2cnn3-c2cccc(OC)c2Cl)n[nH]c1C` [Ex-26, (S)—N-(1-(2-chloro-3-methoxyphenyl)-1,4,5,7-tetrahydropyrano[3,4-c]pyrazol-4-yl)-4-ethyl-5-methyl-1H-pyrazole-3-carboxamide], the IC50 in test [1] (setting [3]) and in test [2] (setting [4]) was < 10 nM in each case.

For the compound `CCc1c(C(=O)N[C@@H]2COCc3c2cnn3-c2c(F)ccc(OC)c2Cl)ncn1C` [Ex-28, (S)—N-(1-(2-chloro-6-fluoro-3-methoxyphenyl)-1,4,5,7-tetrahydropyrano[3,4-c]pyrazol-4-yl)-5-ethyl-1-methyl-1H-imidazole-4-carboxamide], the concentration for half-maximal inhibition (IC50) in test [1] (setting [3]) and in test [2] (setting [4]) was < 10 nM in each case.

`COc1ccc(F)c(-n2ncc3c2COC[C@H]3NC(=O)c2ncc3n2CCCC3)c1Cl` [Ex-29, (S)—N-(1-(2-chloro-6-fluoro-3-methoxyphenyl)-1,4,5,7-tetrahydropyrano[3,4-c]pyrazol-4-yl)-5,6,7,8-tetrahydroimidazo[1,5-a]pyridine-3-carboxamide]: the IC50 in test [1] (setting [3]) and in test [2] (setting [4]) was < 10 nM each time.

In the case of `COc1ccc(F)c(-n2ncc3c2COC[C@H]3NC(=O)c2n[nH]c3c2CCCC3)c1Cl` [Ex-30, (S)—N-(1-(2-chloro-6-fluoro-3-methoxyphenyl)-1,4,5,7-tetrahydropyrano[3,4-c]pyrazol-4-yl)-4,5,6,7-tetrahydro-1H-indazole-3-carboxamide], the results for the IC50 in test [1] (setting [3]) and in test [2] (setting [4]) were < 10 nM and 10 to 100 nM, respectively.

Take `COc1ccc(F)c(-n2ncc3c2COC[C@H]3NC(=O)c2noc3c2CCCC3)c1Cl` [Ex-31, (S)—N-(1-(2-chloro-6-fluoro-3-methoxyphenyl)-1,4,5,7-tetrahydropyrano[3,4-c]pyrazol-4-yl)-4,5,6,7-tetrahydrobenzo[d]isoxazole-3-carboxamide]: the IC50 was < 10 nM in test [1] (MOLM-13, 72 h) and < 10 nM in test [2] (read-out: IC50 DHODH inhibition activity).

Regarding `CCc1c(C(=O)N[C@@H]2COCc3c2cnn3-c2c(F)ccc(OC)c2Cl)n[nH]c1C` [Ex-32, (S)—N-(1-(2-chloro-6-fluoro-3-methoxyphenyl)-1,4,5,7-tetrahydropyrano[3,4-c]pyrazol-4-yl)-4-ethyl-5-methyl-1H-pyrazole-3-carboxamide], the half-inhibitory concentration (IC50) in test [1] (MOLM-13, 72 h) is < 10 nM; in test [2] (setting [4]) it was 10 to 100 nM.

For `COc1ccc(F)c(-n2ncc3c2COC[C@H]3NC(=O)c2cc(C)c(C)cn2)c1Cl` [Ex-33, (S)—N-(1-(2-chloro-6-fluoro-3-methoxyphenyl)-1,4,5,7-tetrahydropyrano[3,4-c]pyrazol-4-yl)-4,5-dimethylpicolinamide], the IC50 in test [1] (setting [3]) and in test [2] (setting [4]) was 10 to 100 nM in each case.

As for `CCc1c(C(=O)N[C@@H]2COCc3c2cnn3-c2c(C)cccc2Cl)ncn1C` [Ex-35, (S)—N-(1-(2-chloro-6-methylphenyl)-1,4,5,7-tetrahydropyrano[3,4-c]pyrazol-4-yl)-5-ethyl-1-methyl-1H-imidazole-4-carboxamide], the IC50 in test [1] (setting [3]) and in test [2] (setting [4]) was < 10 nM each time.

For `Cc1cccc(Cl)c1-n1ncc2c1COC[C@H]2NC(=O)c1ncc2n1CCCC2` [Ex-36, (S)—N-(1-(2-chloro-6-methylphenyl)-1,4,5,7-tetrahydropyrano[3,4-c]pyrazol-4-yl)-5,6,7,8-tetrahydroimidazo[1,5-a]pyridine-3-carboxamide], the IC50 in test [1] (setting [3]) and in test [2] (setting [4]) was < 10 nM each time.

Take `Cc1cccc(Cl)c1-n1ncc2c1COC[C@H]2NC(=O)c1n[nH]c2c1CCCC2` [Ex-37, (S)—N-(1-(2-chloro-6-methylphenyl)-1,4,5,7-tetrahydropyrano[3,4-c]pyrazol-4-yl)-4,5,6,7-tetrahydro-1H-indazole-3-carboxamide]: the IC50 in test [1] (setting [3]) and in test [2] (setting [4]) was 10 to 100 nM in each case.

Turning to `Cc1cccc(Cl)c1-n1ncc2c1COC[C@H]2NC(=O)c1noc2c1CCCC2` [Ex-38, (S)—N-(1-(2-chloro-6-methylphenyl)-1,4,5,7-tetrahydropyrano[3,4-c]pyrazol-4-yl)-4,5,6,7-tetrahydrobenzo[d]isoxazole-3-carboxamide], the IC50 in test [1] (setting [3]) and in test [2] (setting [4]) was < 10 nM in each case.

As for `CCc1c(C(=O)N[C@@H]2COCc3c2cnn3-c2c(C)cccc2Cl)n[nH]c1C` [Ex-39, (S)—N-(1-(2-chloro-6-methylphenyl)-1,4,5,7-tetrahydropyrano[3,4-c]pyrazol-4-yl)-4-ethyl-5-methyl-1H-pyrazole-3-carboxamide], the IC50 in test [1] (MOLM-13, 72 h) lay in the range of 10 to 100 nM; in test [2] (setting [4]), 10 to 100 nM.

For `O=C(N[C@@H]1COCc2c1cnn2-c1cccc(C(F)(F)F)c1Cl)c1ncn2c1CCCC2` [Ex-50, (S)—N-(1-(2-chloro-3-(trifluoromethyl)phenyl)-1,4,5,7-tetrahydropyrano[3,4-c]pyrazol-4-yl)-5,6,7,8-tetrahydroimidazo[1,5-a]pyridine-1-carboxamide], the IC50 in test [1] (setting [3]) was < 10 nM; in test [2] (setting [4]) it was 10 to 100 nM.

As to `COc1cccc(Cl)c1-n1ncc2c1COC[C@H]2NC(=O)c1ncn2c1CCCC2` [Ex-60, (S)—N-(1-(2-chloro-6-methoxyphenyl)-1,4,5,7-tetrahydropyrano[3,4-c]pyrazol-4-yl)-5,6,7,8-tetrahydroimidazo[1,5-a]pyridine-1-carboxamide], the concentration for half-maximal inhibition (IC50) in test [1] (setting [3]) and in test [2] (setting [4]) was 10 to 100 nM throughout.

For `O=C(N[C@@H]1COCc2c1cnn2-c1cccc(O)c1Cl)c1ncn2c1CCCC2` [Ex-62, (S)—N-(1-(2-chloro-3-hydroxyphenyl)-1,4,5,7-tetrahydropyrano[3,4-c]pyrazol-4-yl)-5,6,7,8-tetrahydroimidazo[1,5-a]pyridine-1-carboxamide], the IC50 was in the range of 10 to 100 nM in test [1] (MOLM-13, 72 h) and 10 to 100 nM in test [2].

For the compound `CN(C)C(=O)COc1cccc(-n2ncc3c2COC[C@H]3NC(=O)c2ncn3c2CCCC3)c1Cl` [Ex-64, (S)—N-(1-(2-chloro-3-(2-(dimethylamino)-2-oxoethoxy)phenyl)-1,4,5,7-tetrahydropyrano[3,4-c]pyrazol-4-yl)-5,6,7,8-tetrahydroimidazo[1,5-a]pyridine-1-carboxamide], the IC50 in test [1] (setting [3]) and in test [2] was 10 to 100 nM in each case.
